Test results from article PMC8389807 (Journal of Medicinal Chemistry, 2021).
Like-named read-outs stand apart in the source and are kept apart here.

Columns and labels:
[1] = tested on: rhinovirus 14; assay: microbe, parasite or virus in culture; assay type: cell-based; details: Enterovirus; rhinovirus 14, HeLa Rh host cell
[2] = target: gp120 binding of mAb 9305 (Human immunodeficiency virus type 1, UniProt P03377); assay: cell-based; details: HIV-1 NL4.3-infected MT-4 cells, flow cytometry
[3] = target: gp120 binding of mAb clone 9284 (Human immunodeficiency virus type 1, UniProt P03377); assay: Competition with anti-gp120 mAb 9284 on HIV-1-infected MT-4 cells (flow cytometry); assay type: cell-based, HIV-1 NL4.3
Protocol: (§1) We then investigated the putative gp120 binding site for this class of compounds using competition-binding experiments with mAbs directed to different protein regions: (i) human mAb clone 2G12, whose epitope, composed entirely of N-linked glycans, is centered at position N332;[56]
(§2) These tests were carried out in cell culture using CD4^+ MT-4 T cells that express high levels of gp120 on their membrane when they become infected.

[4] = target: gp120 binding of mAb clone 447-52D (Human immunodeficiency virus type 1, UniProt P03377); assay: Competition with anti-gp120 mAb 447-52D on HIV-1-infected MT-4 cells (flow cytometry); assay type: cell-based, HIV-1 NL4.3
Protocol: as §1, §2
anti-mouse mAb). This is background staining or called negative control (NC).
bPositive control. HIV-1 infected cells stained with the first (anti-HIV-1 envelope antibody) and then the
This is the positive control (PC).
Finally, the mannose-specific lectin Hippeastrum hybrid agglutinin

[5] = tested on: HIV-1 (NL4.3); assay: microbe, parasite or virus in culture; assay type: cell-based; details: Human immunodeficiency virus 1; CXCR4-tropic strain, PBMC; read-out: HIV-1 (NL4.3) EC50
[6] = tested on: EV71 genogroup B5 strain TW/70902/08; assay: microbe, parasite or virus in culture; assay type: cell-based; details: Enterovirus A, genogroup B5, strain TW/70902/08, RD cells
[7] = tested on: EV71 genogroup C2 strain H08300 461#812; assay: microbe, parasite or virus in culture; assay type: cell-based; details: Enterovirus A, genogroup C2, strain H08300 461#812, RD cells
[8] = target: T1, recombinant HIV-1 IIIB gp120 (Human immunodeficiency virus type 1 group M subtype B, UniProt P03375); assay: biochemical; assay type: binding; details: SPR, four replicates
T1 construct: purchased ImmunoDx, Woburn, Massachusetts; host or cells: Chinese hamster ovary cells

[9] = tested on: HIV-1 (Ba-L); assay: microbe, parasite or virus in culture; assay type: cell-based; details: Human immunodeficiency virus 1, BAL; CCR5-tropic strain, PBMC; read-out: HIV-1 (Ba-L) EC50
[10] = tested on: EV71 genogroup B2 strain 11316; assay: microbe, parasite or virus in culture; assay type: cell-based; details: Enterovirus A, genogroup B2, strain 11316, RD cells
[11] = tested on: BrCr Lab Strain of EV-A71; assay: Antiviral activity against the BrCr lab strain of EV-A71 in RD cells (CPE reduction, MTS/PMS); assay type: cell-based; details: Enterovirus A, EVA71, RD, read-out: EC50
[12] = tested on: HIV-1 (NL4.3); assay: microbe, parasite or virus in culture; assay type: cell-based; details: Human immunodeficiency virus 1, MT4; MT-4 cells; 50% reduction of virus-induced cytopathic effect
[13] = tested on: rhinovirus 2; assay: microbe, parasite or virus in culture; assay type: cell-based; details: Enterovirus; rhinovirus 2, HeLa Rh host cell
[14] = tested on: EV-A71 VP1 (S184T/P246S); assay type: cell-based
[15] = target: T2, gp120-CD4 binding (Human immunodeficiency virus type 1 group M subtype B, UniProt P03375); assay: biochemical
T2 construct: […]; purchased CD4: Life Technologies Europe, Merelbeke, Belgium; gp120: not restated here (ImmunoDx inferred)

[16] = target: gp120 binding of mAb 2G12 (Human immunodeficiency virus type 1, UniProt P03377); assay: cell-based; assay type: cell-based; details: HIV-1 NL4.3-infected MT-4 cells, flow cytometry
[17] = tested on: HIV-2 (ROD); assay: Anti-HIV-2 activity in MT-4 cells (CPE, MTS/PES); assay type: cell-based; details: Human immunodeficiency virus 2, MT4, MT-4 cells; 50% reduction of virus-induced cytopathic effect; read-out: HIV-2 (ROD) EC50
[18] = tested on: EV-A71 VP1 (P246S); assay type: cell-based
[19] = tested on: EV-A71 VP1 (S184T); assay type: cell-based
[20] = in vitro; details: human
[21] = tested on: coxsackievirus B3 Nancy strain; assay: microbe, parasite or virus in culture; assay type: cell-based; details: Enterovirus B, Vero A host cell
[22] = tested on: enterovirus D68 CU70 strain; assay: microbe, parasite or virus in culture; assay type: cell-based; details: Enterovirus D, HeLa Rh host cell
[23] = tested on: EV71 genogroup C4 strain TW/1956/05; assay: microbe, parasite or virus in culture; assay type: cell-based; details: Enterovirus A, genogroup C4, strain TW/1956/05, RD cells
[24] = in vitro; details: human; remark: listed apart in the source

O=C(CCOCC(COCCC(=O)NC(Cc1c(-c2cc(C(=O)O)cc(C(=O)O)c2)[nH]c2c(-c3cc(C(=O)O)cc(C(=O)O)c3)cccc12)C(=O)O)(COCCC(=O)NC(Cc1c(-c2cc(C(=O)O)cc(C(=O)O)c2)[nH]c2c(-c3cc(C(=O)O)cc(C(=O)O)c3)cccc12)C(=O)O)COCCC(=O)NC(Cc1c(-c2cc(C(=O)O)cc(C(=O)O)c2)[nH]c2c(-c3cc(C(=O)O)cc(C(=O)O)c3)cccc12)C(=O)O)NC(Cc1c(-c2cc(C(=O)O)cc(C(=O)O)c2)[nH]c2c(-c3cc(C(=O)O)cc(C(=O)O)c3)cccc12)C(=O)O (stereo not drawn) [Compound 33]
EC50 [1]: > 50 µM | IC50 [2]: > 100 µM | IC50 ([3]; HIV-1 NL4.3-infected MT-4 cells, flow cytometry, average, read-out: 9284 IC50): 3.8 µM | inhibition at 0.16 µM ([3]; MT4, mAb 9284, 0.16 µM, Table S2, read-out: % inhibition of antibody binding): 25.1% | inhibition at 0.8 µM ([3]; MT4, mAb 9284, 0.8 µM, Table S2, read-out: % inhibition of antibody binding): 37.9% | inhibition at 4 µM ([3]; MT4, mAb 9284, 4 µM, Table S2, read-out: % inhibition of antibody binding): 51.4% | inhibition at 20 µM ([3]; MT4, mAb 9284, 20 µM, Table S2, read-out: % inhibition of antibody binding): 61.1% | % inhibition of antibody binding ([3]; mAb 9284, 0.16 µM, Table S2, listed as AL-518, 0.16 µM): 25% | % inhibition of antibody binding ([3]; mAb 9284, 20 µM, Table S2, listed as AL-518, 20 µM): 61% | IC50 ([3]; mAb 9284, Table S2, read-out: IC50): 3.37 µM | IC50 ([4]; HIV-1 NL4.3-infected MT-4 cells, flow cytometry, average, read-out: 447-52D IC50): 6.8 µM | inhibition at 0.16 µM ([4]; MT4, mAb 447-52D, 0.16 µM, Table S1, read-out: % inhibition of antibody binding): 16.9% | inhibition at 0.8 µM ([4]; MT4, mAb 447-52D, 0.8 µM, Table S1, read-out: % inhibition of antibody binding): 23.9% | inhibition at 4 µM ([4]; MT4, mAb 447-52D, 4 µM, Table S1, read-out: % inhibition of antibody binding): 36.5% | inhibition at 20 µM ([4]; MT4, mAb 447-52D, 20 µM, Table S1, read-out: % inhibition of antibody binding): 76.9% | % inhibition of antibody binding ([4]; mAb 447-52D, 0.16 µM, Table S1, listed as AL-518, 0.16 µM): 17% | % inhibition of antibody binding ([4]; mAb 447-52D, 20 µM, Table S1, listed as AL-518, 20 µM): 77% | IC50 ([4]; mAb 447-52D, Table S1, read-out: IC50): 6.85 µM | EC50 [5]: 0.033 µM | EC50 [6]: 0.01 ± 0.0015 µM | EC50 [7]: 0.12 ± 0.006 µM | kd ([8]; 1:1 Langmuir model): 2.45 ± 0.34 ×10^–3 s^–1 | kon ([8]; 1:1 Langmuir model, read-out: ka): 3340 ± 1020 M⁻¹ s⁻¹ | Kd ([8]; apparent KD): 0.84 ± 0.34 µM | EC50 [9]: 0.036 µM | EC50 [10]: 0.101 ± 0.011 µM | EC50 ([11]; BrCr lab strain, RD cells, 50% reduction of virus-induced CPE): 0.04 ± 0.01 µM | EC50 ([11]; BrCr wild type (cross-resistance study)): 0.03 ± 0.01 µM | EC50 ([11]; enterovirus panel, enterovirus A71 BrCr strain, RD host cell): 0.04 ± 0.007 µM | EC50 ([11]; genogroup A, BrCr, RD cells (clinical isolate panel)): 0.043 ± 0.006 µM | EC50 [12]: 0.006 ± 0.005 µM | EC50 [13]: > 50 µM | EC50 [14]: 0.06 ± 0.04 µM | IC50 ([15]; SPR, 25 nM gp120, immobilized CD4, read-out: concentration inhibiting 50% of gp120-CD4 binding): 0.01 to 0.04 µM | times more potent than AL-471 ([15]; inhibition of gp120-CD4 binding): at least 16 | 2G12 IC50 [16]: did not prevent the binding | IC50 [16]: > 100 µM | EC50 [17]: ~0.06 µM | EC50 [18]: 0.03 ± 0.01 µM | EC50 [19]: 0.1 ± 0.01 µM | CC50 [20]: > 100 µM | EC50 [21]: > 50 µM | EC50 [22]: > 50 µM | EC50 [23]: 0.011 ± 0.0002 µM | CC50 [24]: > 100 µM
